The values that follow come from US20250186437A1, “CARBOLINE COMPOUNDS AND USE THEREOF” (PTC Therapeutics, Inc., priority 2021, published 2025).

For orientation: IC50 means the concentration that inhibits the measured activity by half. The low end stands for higher potency, the high end for lower potency.

Structures are written as SMILES.

For this assay, the system named is MOLM-13 cells. Description: MOLM-13 Cell Proliferation Assay (indicator of DHODH inhibition). The following applies: Homo sapiens, 72 Hours of culture, CellTiter-Glo, no uridine. It is filed as cell-based. On the procedure:
The following assay was conducted to measure proliferation of MOLM-13 cells in the presence of each compound studied. This assay was included as an indicator of DHODH inhibition, as growth of MOLM-13 cells is known to depend on synthesis of pyrimidines using the de novo pathway, which can be blocked by inhibition of DHODH. • 1. MOLM-13 cells were cultured in RPMI 1640 medium+10% Fetal Bovine Serum (FBS). Only low passage cells (<20) were used for the compound tests • 2. On day 1, Log-phase growing Molm-13 Cells were counted and diluted to 10^5 cells/mL in RPMI 1640 medium+10% FBS • 3. 100 μL of diluted MOLM-13 cells in 96 well white plates were seeded, for a final density of 10^4 cells/well. • 4. 0.5 μL of pre-diluted 200× compounds or DMSO control was added to each well. The final DMSO concentration was 0.5%. • 5. After 72 Hours of culture at 37° C., 5% CO2, the plates were taken out and cooled to RT, then 50 μL CellTiter-Glo® (Promega) was added, and the composition was mixed at RT for 10 minutes. • 6. The plates were then read by ViewLux (Speed-fast, Gain-High, Bining-1X, 5 seconds).
(In general: Cellular ATP, detected with luciferase, serves as a proxy for viable cell number.)
For `Fc1cnc(N2CCc3c([nH]c4cc(F)c(Cl)cc34)C2c2ccc(F)nc2)nc1` (stereo not drawn) [Compound 47, 6-chloro-7-fluoro-1-(6-fluoropyridin-3-yl)-2-(5-fluoropyrimidin-2-yl)-2,3,4,9-tetrahydro-1H-pyrido[3,4-b]indole], it took 140 nM to reach half-maximal inhibition (IC50). This counts as sub-micromolar.

As for `Oc1ccc(C2c3[nH]c4cc(F)c(Cl)cc4c3CCN2c2ncc(F)cn2)cn1` (stereo not drawn) [Compound 48, 5-[6-chloro-7-fluoro-2-(5-fluoropyrimidin-2-yl)-2,3,4,9-tetrahydro-1H-pyrido[3,4-b]indol-1-yl]pyridin-2-ol], the IC50 stood at 222 nM.

`Fc1ccc(C2c3[nH]c4ccc(Cl)c(F)c4c3CCN2c2ncc(Cl)cn2)cc1` (stereo not drawn) [Compound 49, 6-chloro-2-(5-chloropyrimidin-2-yl)-5-fluoro-1-(4-fluorophenyl)-2,3,4,9-tetrahydro-1H-pyrido[3,4-b]indole] returned an IC50 of 21.2 nM. Against the preceding compound, the IC50 is about 10-fold lower.

The compound `CC(C)c1ccc(C2c3[nH]c4cc(F)c(Cl)cc4c3CCN2c2ncc(F)cn2)cc1` (stereo not drawn) [Compound 50, 6-chloro-7-fluoro-2-(5-fluoropyrimidin-2-yl)-1-[4-(propan-2-yl)phenyl]-2,3,4,9-tetrahydro-1H-pyrido[3,4-b]indole] returned an IC50 of 24.7 nM. The IC50 values of the last two compounds are within 1.5-fold of each other.

`Fc1ccc(C2c3[nH]c4ccc(Cl)c(F)c4c3CCN2c2ncc(F)cn2)cc1` (stereo not drawn) [Compound 51, 6-chloro-5-fluoro-1-(4-fluorophenyl)-2-(5-fluoropyrimidin-2-yl)-2,3,4,9-tetrahydro-1H-pyrido[3,4-b]indole] registered an IC50 of 21.6 nM.

In turn, `N#Cc1ccc(C2c3[nH]c4ccc(Cl)c(F)c4c3CCN2c2ncc(Cl)cn2)cc1` (stereo not drawn) [Compound 52, 4-[6-chloro-2-(5-chloropyrimidin-2-yl)-5-fluoro-2,3,4,9-tetrahydro-1H-pyrido[3,4-b]indol-1-yl]benzonitrile] yielded an IC50 of 25.7 nM.

On to `CC(C)c1ccc(C2c3[nH]c4cc(F)c(Cl)cc4c3CCN2c2nccc(Cl)n2)cc1` (stereo not drawn) [Compound 53, 6-chloro-2-(4-chloropyrimidin-2-yl)-7-fluoro-1-[4-(propan-2-yl)phenyl]-2,3,4,9-tetrahydro-1H-pyrido[3,4-b]indole], for which inhibition was half-maximal at 7.7 nM (IC50).

Consider `CC(C)c1ccc(C2c3[nH]c4cc(F)c(Cl)cc4c3CCN2c2nccc(C#N)n2)cc1` (stereo not drawn) [Compound 55, 2-{6-chloro-7-fluoro-1-[4-(propan-2-yl)phenyl]-1,3,4,9-tetrahydro-2H-pyrido[3,4-b]indol-2-yl}pyrimidine-4-carbonitrile], for which the midpoint of inhibition, the IC50, lay at 13.1 nM.

As for `N#Cc1ccc(C2c3[nH]c4ccc(Cl)c(F)c4c3CCN2c2ncc(F)cn2)cc1` (stereo not drawn) [Compound 56, 4-[6-chloro-5-fluoro-2-(5-fluoropyrimidin-2-yl)-2,3,4,9-tetrahydro-1H-pyrido[3,4-b]indol-1-yl]benzonitrile], the IC50 came out at 25.7 nM. This IC50 is about 2-fold higher than that of the compound before.

Turning to `CC(C)c1ccc(C2c3[nH]c4cc(F)c(Cl)cc4c3CCN2c2ncc(Cl)cn2)cc1` (stereo not drawn) [Compound 57, 6-chloro-2-(5-chloropyrimidin-2-yl)-7-fluoro-1-[4-(propan-2-yl)phenyl]-2,3,4,9-tetrahydro-1H-pyrido[3,4-b]indole], the IC50 turned out to be 19.9 nM.

Compound `Fc1cnc(N2CCc3c([nH]c4cc(F)c(Cl)cc34)C2c2cccc(F)c2)nc1` (stereo not drawn) [Compound 58, 6-chloro-7-fluoro-1-(3-fluorophenyl)-2-(5-fluoropyrimidin-2-yl)-2,3,4,9-tetrahydro-1H-pyrido[3,4-b]indole] came in with an IC50 of 89.8 nM.

Consider `N#Cc1ccc(C2c3[nH]c4cc(F)c(Cl)cc4c3CCN2c2ncc(Cl)cn2)cc1` (stereo not drawn) [Compound 59, 4-[6-chloro-2-(5-chloropyrimidin-2-yl)-7-fluoro-2,3,4,9-tetrahydro-1H-pyrido[3,4-b]indol-1-yl]benzonitrile], for which the IC50 amounted to 38.7 nM.

For `Fc1ccc(C2c3[nH]c4ccc(Cl)c(F)c4c3CCN2c2nccc(C(F)(F)F)n2)cc1` (stereo not drawn) [Compound 60, 6-chloro-5-fluoro-1-(4-fluorophenyl)-2-[4-(trifluoromethyl)pyrimidin-2-yl]-2,3,4,9-tetrahydro-1H-pyrido[3,4-b]indole], the midpoint of inhibition, the IC50, lay at 9.3 nM. This IC50 lies about 4.2-fold lower than the previous one.

Compound `Cc1ccnc(N2CCc3c([nH]c4cc(F)c(Cl)cc34)C2c2ccc(C#N)cc2)n1` (stereo not drawn) [Compound 61, 4-[6-chloro-7-fluoro-2-(4-methylpyrimidin-2-yl)-2,3,4,9-tetrahydro-1H-pyrido[3,4-b]indol-1-yl]benzonitrile] yielded an IC50 of 35.2 nM. This IC50 is about 3.8-fold higher than that of the compound before.

Take `Fc1c(Cl)ccc2[nH]c3c(c12)CCN(c1ncc(Cl)cn1)C3c1ccc(C(F)(F)F)cc1` (stereo not drawn) [Compound 62, 6-chloro-2-(5-chloropyrimidin-2-yl)-5-fluoro-1-[4-(trifluoromethyl)phenyl]-2,3,4,9-tetrahydro-1H-pyrido[3,4-b]indole]: the IC50 was 24.7 nM.

Compound `Cc1ccnc(N2CCc3c([nH]c4cc(F)c(Cl)cc34)C2c2cccc(F)c2F)n1` (stereo not drawn) [Compound 63, 6-chloro-1-(2,3-difluorophenyl)-7-fluoro-2-(4-methylpyrimidin-2-yl)-2,3,4,9-tetrahydro-1H-pyrido[3,4-b]indole] gave an IC50 of 13.2 nM.

The compound `N#Cc1ccc(C2c3[nH]c4cc(F)c(Cl)cc4c3CCN2c2nccc(C#N)n2)cc1` (stereo not drawn) [Compound 64, 2-[6-chloro-1-(4-cyanophenyl)-7-fluoro-1,3,4,9-tetrahydro-2H-pyrido[3,4-b]indol-2-yl]pyrimidine-4-carbonitrile] displayed an IC50 of 67.5 nM. This IC50 is about 5.1-fold higher than that of the compound before.

`Cc1ccc(C2c3[nH]c4cc(F)c(Cl)cc4c3CCN2c2nc(C)cc(C)n2)cc1` (stereo not drawn) [Compound 66, 6-chloro-2-(4,6-dimethylpyrimidin-2-yl)-7-fluoro-1-(4-methylphenyl)-2,3,4,9-tetrahydro-1H-pyrido[3,4-b]indole] showed an IC50 of 9.7 nM.

Turning to `Fc1cnc(N2CCc3c([nH]c4ccc(Cl)c(F)c34)C2c2ccc(C(F)(F)F)cc2)nc1` (stereo not drawn) [Compound 67, 6-chloro-5-fluoro-2-(5-fluoropyrimidin-2-yl)-1-[4-(trifluoromethyl)phenyl]-2,3,4,9-tetrahydro-1H-pyrido[3,4-b]indole], the IC50 amounted to 19.1 nM. This IC50 is about 2-fold higher than that of the compound before.

`N#Cc1ccnc(N2CCc3c([nH]c4cc(F)c(Cl)cc34)C2c2cccc(F)c2F)n1` (stereo not drawn) [Compound 68, 2-[6-chloro-1-(2,3-difluorophenyl)-7-fluoro-1,3,4,9-tetrahydro-2H-pyrido[3,4-b]indol-2-yl]pyrimidine-4-carbonitrile] showed an IC50 of 8.8 nM.

`N#Cc1ccc(C2c3[nH]c4cc(F)c(Cl)cc4c3CCN2c2nccc(Br)n2)cc1` (stereo not drawn) [Compound 69, 4-[2-(4-bromopyrimidin-2-yl)-6-chloro-7-fluoro-2,3,4,9-tetrahydro-1H-pyrido[3,4-b]indol-1-yl]benzonitrile] registered an IC50 of 10.6 nM.

As to `Cc1nc(N2CCc3c([nH]c4ccc(Cl)c(F)c34)C2c2ccc(Cl)cc2)ncc1F` (stereo not drawn) [Compound 70, 6-chloro-1-(4-chlorophenyl)-5-fluoro-2-(5-fluoro-4-methylpyrimidin-2-yl)-2,3,4,9-tetrahydro-1H-pyrido[3,4-b]indole], the IC50 turned out to be 6.7 nM.

As to `C=Cc1ccc(C2c3[nH]c4ccc(Cl)cc4c3CCN2c2ncc(F)cn2)cc1` (stereo not drawn) [Compound 71, 6-chloro-1-(4-ethenylphenyl)-2-(5-fluoropyrimidin-2-yl)-2,3,4,9-tetrahydro-1H-pyrido[3,4-b]indole], the IC50 was 19.3 nM.

As for `Fc1c(Cl)ccc2[nH]c3c(c12)CCN(c1nccc(C(F)(F)F)n1)C3c1ccc(Cl)cc1` (stereo not drawn) [Compound 73, 6-chloro-1-(4-chlorophenyl)-5-fluoro-2-[4-(trifluoromethyl)pyrimidin-2-yl]-2,3,4,9-tetrahydro-1H-pyrido[3,4-b]indole], the IC50 amounted to 4.1 nM.

On to `Fc1c(Cl)ccc2[nH]c3c(c12)CCN(c1nccc(C(F)(F)F)n1)C3c1ccc(C(F)(F)F)cc1` (stereo not drawn) [Compound 74, 6-chloro-5-fluoro-1-[4-(trifluoromethyl)phenyl]-2-[4-(trifluoromethyl)pyrimidin-2-yl]-2,3,4,9-tetrahydro-1H-pyrido[3,4-b]indole], for which the IC50 amounted to 5.7 nM.

As to `Fc1cc2[nH]c3c(c2cc1Cl)CCN(c1nccc(C(F)(F)F)n1)C3c1ccc(C(F)(F)F)cc1` (stereo not drawn) [Compound 75, 6-chloro-7-fluoro-1-[4-(trifluoromethyl)phenyl]-2-[4-(trifluoromethyl)pyrimidin-2-yl]-2,3,4,9-tetrahydro-1H-pyrido[3,4-b]indole], the IC50 was found to be 12.5 nM.

`Cc1ccc(C2c3[nH]c4ccc(Cl)c(F)c4c3CCN2c2nccc(C(F)(F)F)n2)cc1` (stereo not drawn) [Compound 76, 6-chloro-5-fluoro-1-(4-methylphenyl)-2-[4-(trifluoromethyl)pyrimidin-2-yl]-2,3,4,9-tetrahydro-1H-pyrido[3,4-b]indole] had an IC50 of 2.5 nM.

`Fc1cc2[nH]c3c(c2cc1Cl)CCN(c1nccc(Cl)n1)C3c1cccc(F)c1F` (stereo not drawn) [Compound 77, 6-chloro-2-(4-chloropyrimidin-2-yl)-1-(2,3-difluorophenyl)-7-fluoro-2,3,4,9-tetrahydro-1H-pyrido[3,4-b]indole] yielded an IC50 of 7.4 nM.

Turning to `OCc1ccc(C2c3[nH]c4cc(F)c(Cl)cc4c3CCN2c2ncc(F)cn2)cc1` (stereo not drawn) [Compound 78, {4-[6-chloro-7-fluoro-2-(5-fluoropyrimidin-2-yl)-2,3,4,9-tetrahydro-1H-pyrido[3,4-b]indol-1-yl]phenyl}methanol], half-maximal inhibition (IC50) required 46.9 nM.

In the case of `C=Cc1ccc(C2c3[nH]c4cc(F)c(Cl)cc4c3CCN2c2ncc(F)cn2)cc1` (stereo not drawn) [Compound 79, 6-chloro-1-(4-ethenylphenyl)-7-fluoro-2-(5-fluoropyrimidin-2-yl)-2,3,4,9-tetrahydro-1H-pyrido[3,4-b]indole], inhibition was half-maximal at 20.7 nM (IC50).
